Experimental data as given in US6929811B2, “Monoamine oxidase (MAO) inhibitors and uses thereof” (priority 1998, dated 2005).

Experiments:
MPTP induced toxicity = settings: mice, cited from earlier work; for effect on dopamine levels: MPTP
MAO B = experiment: Selective MAO B assay in liver homogenate, other isoform blocked by selective inhibitor; type: biochemical, cow or rat; settings: saturating concentration; significantly different from control
Description: (§1) Liver samples from cow or rat were obtained immediately after sacrifice. Liver was homogenized in a Polytron mechanical homogenizer in a ratio of 1 gram of liver to 1 ml of potassium phosphate buffer (0.2 M at pH of 7.6). Large membranes were removed by low speed centrifugation at 1000×g for 15 minutes. The supernatant was removed from the pellet and used immediately for MAO activity assays or stored at 0 degrees Centigrade. Protein levels were determined in the liver homogenate by the Bradford protein reaction.
(§2) The standard reaction conditions were developed as a modification of the spectrophotometric assay using standard conditions (Halt, A., et al., Analytical Biochemistry, 244:384-392 (1997)). Total MAO activity was determined by incubating the liver preparations for 30 minutes at 37 degrees Centigrade with a 1/1 dilution of a test fraction (compound or substance to be tested dissolved in distilled water) or control condition (water alone). […]
(§3) Following the incubation with test compounds/substances or control, the MAO reactions were initiated and the reactions were incubated at 37 degrees Centigrade. […] The stopped reactions were stored on ice and placed at room temperature for reading in a spectrophotometer at a wavelength of 498 nm. The resulting values were analyzed to determine the amount of reaction product produced by MAO activity. […]
(§4) Selective assays of MAO A and MAO B isoforms were determined by using selective inhibitors of each of these enzymes. […]
(§5) Each of the compounds and substances of the present invention were evaluated by initially determining a concentration curve at a reaction time of one hour. After determining the concentration curves of each compound or substance on MAO activity, a reaction time course in the presence or absence of test compound or substance was determined and time course curves were generated. Following these experiments, the effect of each test compound or substance was evaluated on MAO A and MAO B activity by the same reaction studies as described above for the total enzyme activity.

MAO A = experiment: Selective MAO A assay in liver homogenate, other isoform blocked by selective inhibitor; type: biochemical, cow or rat; settings: saturating concentration; significantly different from control
Description: as §1, §2, §3, §4, §5

MAO = experiment: Total MAO activity, spectrophotometric assay in liver homogenate; type: biochemical, cow or rat; settings: for percent inhibition of MAO activity: at maximal or saturating inhibition concentrations, tyramine substrate, 37 degrees Centigrade; for maximal inhibition concentration: dissolved in distilled water, concentration curve at reaction time of one hour; for MAO inhibition over the reaction time course: saturating concentrations, over 60 minutes of MAO activity
Description: The MAO activities of the compounds and substances were determined using standard reaction conditions as described in Halt, A., et al., Analytical Biochemistry, 244:384-392 (1997).
as §1
The standard reaction conditions were developed as a modification of the spectrophotometric assay using standard conditions (Halt, A., et al., Analytical Biochemistry, 244:384-392 (1997)). Total MAO activity was determined by incubating the liver preparations for 30 minutes at 37 degrees Centigrade with a 1/1 dilution of a test fraction (compound or substance to be tested dissolved in distilled water) or control condition (water alone). This incubation allowed the test compound or substance to interact with the enzyme under physiological conditions. The final tissue concentration in the reaction mixture was 3.5 mg per 100 ml.
Following the incubation with test compounds/substances or control, the MAO reactions were initiated and the reactions were incubated at 37 degrees Centigrade. The reaction was initiated by mixing 150 μl of preincubated tissue with 150 μl of chromogenic solution (containing 10 mM vanillic acid, 5 mM 4-amino antipyrene, 20 units/ml of peroxidase in 0.2 M potassium phosphate buffer final concentration pH 7.6), 600 μl of amine substrate (tyramine 500 micromolar), and 100 μl of distilled water (1 ml reaction volume). The standard reaction time was for 1 hour, but reaction times varied from 1 minute to 3 hours to evaluate the time course of the reaction in the presence or absence of test substance or control. The reactions were terminated by the addition of 30 μl of a stop solution of phenelzine (10 mM). The stopped reactions were stored on ice and placed at room temperature for reading in a spectrophotometer at a wavelength of 498 nm. The resulting values were analyzed to determine the amount of reaction product produced by MAO activity. This assay was reliable and simple to perform. A standard curve using hydrogen peroxide for enzyme activity was prepared for each experiment to determine the activity of the enzyme.
as §5

Compound	effect on dopamine levels (MPTP induced toxicity)	effect on decrease in dopamine metabolite levels induced by MPTP (MPTP induced toxicity)	inhibition of MAO B activity (MAO B)	inhibition of MAO A activity (MAO A)	percent inhibition of MAO activity (MAO)	maximal inhibition concentration (MAO)	MAO inhibition over the reaction time course (MAO)
CN1CCCC1c1cccnc1 (stereo not shown) [nicotine]	no significant effect on dopamine levels	prevented the decrease in dopamine metabolite levels	–	–	–	–	–
c1ccc(-c2ccncc2)cc1 [4-phenylpyridine]	no significant effect on dopamine levels	prevented the decrease in dopamine metabolite levels	–	–	–	–	–
c1cncc([C@@H]2CCCCN2)c1 [anabasine, Anabasine]	–	–	inhibit both MAO A and MAO B activity	inhibit both MAO A and MAO B activity	10-13%	0.2 mg/mL	effective at inhibiting the enzyme at all time points in the reaction
c1cncc([C@@H]2CCCN2)c1 [nornicotine, Nornicotine]	–	–	equally effective in inhibiting both MAO A and MAO B activities	equally effective in inhibiting both MAO A and MAO B activities	80 to 95%	0.08 mg/mL	effective at inhibiting the enzyme at all time points in the reaction
C1=CCC(c2cccnc2)NC1 (stereo not shown) [anatabine, Anatabine]	–	–	equally effective in inhibiting both MAO A and MAO B activities	equally effective in inhibiting both MAO A and MAO B activities	approximately 60%	0.1 mg/mL	effective at inhibiting the enzyme at all time points in the reaction
